Laboratory results published in patent US20260374739A1, “SMALL MOLECULAR WEIGHT CHEMICAL COMPOUND TO ANTAGONIZE EPH-EPHRIN TETRAMERIZATION AND INHIBIT BIDIRECTIONAL SIGNALING” (THE BOARD OF REGENTS OF THE UNIVERSITY OF TEXAS SYSTEM, priority 2022, published 2026).
Where “and” joins values, the source holds several entries; their conditions need not be identical. Equal entries are not always repeated. Where two headings read alike, the source gives them in different places.

What was measured:
EphrinB2-EphB2 [1] = target: T1, EphrinB2-EphB2 (Homo sapiens, UniProt P29323); test: Octet tetramerization inhibition, immobilized human EphrinB2 binding to 50 nM soluble human EphB2; conditions: for disruption of unsurmountable tetramer: 0.8-3.2 μM
T1 construct: soluble human EphB1-His, EphB2-His, and EphB4-His ectodomains; commercially available human EphrinB1-Fc (EB1), EphrinB2-Fc (EB2), and EphrinB3-Fc (EB3) ectodomain proteins; purchased
T1 sequence (P29323 19-543 limits assumed): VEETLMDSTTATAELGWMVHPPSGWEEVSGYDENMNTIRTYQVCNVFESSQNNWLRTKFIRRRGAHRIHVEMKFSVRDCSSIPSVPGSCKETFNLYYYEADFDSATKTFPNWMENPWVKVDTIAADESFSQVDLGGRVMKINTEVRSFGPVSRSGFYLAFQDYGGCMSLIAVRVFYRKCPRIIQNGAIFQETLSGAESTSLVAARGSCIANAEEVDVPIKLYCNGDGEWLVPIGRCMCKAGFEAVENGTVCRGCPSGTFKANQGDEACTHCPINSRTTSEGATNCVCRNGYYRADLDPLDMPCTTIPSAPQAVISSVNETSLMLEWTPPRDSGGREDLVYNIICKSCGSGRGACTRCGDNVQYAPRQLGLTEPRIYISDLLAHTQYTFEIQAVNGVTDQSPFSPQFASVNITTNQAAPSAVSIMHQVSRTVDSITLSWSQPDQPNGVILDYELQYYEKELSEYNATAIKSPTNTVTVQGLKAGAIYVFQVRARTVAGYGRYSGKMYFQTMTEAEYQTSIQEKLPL

EphrinB2-EphB1 = target: T2, EphrinB2-EphB1 (Homo sapiens, UniProt P54762); test: Octet 80 sec association/500 sec dissociation, immobilized human EphrinB2-Fc binding to soluble human EphB1-His
T2 construct: soluble human EphB1-His, EphB2-His, and EphB4-His ectodomains; commercially available human EphrinB1-Fc (EB1), EphrinB2-Fc (EB2), and EphrinB3-Fc (EB3) ectodomain proteins; purchased
T2 sequence (P54762 18-540 limits assumed): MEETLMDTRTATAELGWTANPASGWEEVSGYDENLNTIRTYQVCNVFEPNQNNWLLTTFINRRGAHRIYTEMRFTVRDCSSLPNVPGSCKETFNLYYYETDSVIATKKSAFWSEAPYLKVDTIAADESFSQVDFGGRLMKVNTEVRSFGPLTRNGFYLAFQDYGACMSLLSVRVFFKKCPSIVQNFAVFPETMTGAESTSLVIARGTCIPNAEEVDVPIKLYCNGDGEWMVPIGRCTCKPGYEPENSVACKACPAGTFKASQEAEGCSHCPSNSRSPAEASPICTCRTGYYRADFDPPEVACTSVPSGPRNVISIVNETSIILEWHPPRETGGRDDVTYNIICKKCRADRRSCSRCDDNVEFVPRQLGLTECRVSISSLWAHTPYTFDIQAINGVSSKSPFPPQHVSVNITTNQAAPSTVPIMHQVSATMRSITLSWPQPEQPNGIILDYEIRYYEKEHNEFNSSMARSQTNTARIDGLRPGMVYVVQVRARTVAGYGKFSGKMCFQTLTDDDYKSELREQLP
Procedure, shortened: (§1)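 EphrinB2-Fc captured on AHC biosensors, then soluble His-tagged EphB ectodomain (25 nM for % inhibition runs) associated 80 s and dissociated 500 s in PBS, 0.05% Tween-20, 1% DMSO ± compound. Compounds tested at 0.1–3.2 μM with a 10 μM max standard; IC50 from AUC of full traces or at 75 s and 135 s.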

EphrinB2-EphB2 [2] = target: T1, EphrinB2-EphB2; test: Octet 80 sec association/500 sec dissociation, immobilized human EphrinB2-Fc binding to soluble human EphB2-His; conditions: for inhibition at 3.2 µM: EphB2, 25 nM EphB2, 3.2 μM compound, A20-I as max control, 0* = less than 0, no inhibition
Procedure, shortened: as §1

[3] = Absolute AUC/IC50, Table A, EphrinB2-EphB2
[4] = Absolute Association IC50 (300 sec), Table A, EphrinB2-EphB2
[5] = Absolute Dissociation IC50 (450 sec), Table A, EphrinB2-EphB2
[6] = Relative AUC/IC50, Table A, EphrinB2-EphB2, compound 7: association only
[7] = Relative Association IC50 (300 sec), Table A, EphrinB2-EphB2
[8] = Relative Dissociation IC50 (450 sec), Table A, EphrinB2-EphB2
[9] = EphB1, 25 nM EphB1, 3.2 μM compound, A20-I as max control, 0* = less than 0, no inhibition, read-out: % Inhibition: Association + Dissociation (160 sec)
[10] = EphB1, 25 nM EphB1, 3.2 μM compound, A20-I as max control, 0* = less than 0, no inhibition, read-out: % Inhibition: Association ONLY (80 sec)
[11] = read-out: % Inhibition: Association + Dissociation (160 sec)
[12] = read-out: % Inhibition: Association ONLY (80 sec)

| inhibition of EphrinB2-EphB interactions (EphrinB2-EphB2 [2]; 3.2 μM, EphB1, EphB2 and EphB4) | SMILES | tetramerization inhibitor activity (EphrinB2-EphB2 [1]) | disruption of unsurmountable tetramer (EphrinB2-EphB2 [1]; listed as 3511-1) | disruption of unsurmountable tetramer (EphrinB2-EphB2 [1]; listed as 3511-I) | IC50 (EphrinB2-EphB2 [1]; [3]) | IC50 (EphrinB2-EphB2 [1]; [4]) [nM] | IC50 (EphrinB2-EphB2 [1]; [5]) | IC50 (EphrinB2-EphB2 [1]; [6]) | IC50 (EphrinB2-EphB2 [1]; [7]) | IC50 (EphrinB2-EphB2 [1]; [8]) | inhibition at 3.2 µM (EphrinB2-EphB1; [9]) [%] | inhibition at 3.2 µM (EphrinB2-EphB1; [10]) [%] | inhibition at 3.2 µM (EphrinB2-EphB2 [2]; [11]) [%] | inhibition at 3.2 µM (EphrinB2-EphB2 [2]; [12]) [%] | IC50 (EphrinB2-EphB2 [1]; tetramerization inhibitor IC50 (relative), association step, surmountable tetramer) [nM] | % Inhibition: Association + Dissociation (160 sec) (EphrinB2-EphB1; EphB1, 25 nM EphB1, 3.2 μM compound, A20-I as max control, 0* = less than 0, no inhibition, listed as QPB4) [%] | EphB1 Inhibition Percent, Inhibition of Association ONLY (EphrinB2-EphB1; at 3.2 μM and 80 seconds, immobilized human EphrinB2, 25 nM soluble human EphB1) [%] | EphB1 Inhibition Percent, Inhibition of Association-Dissociation (EphrinB2-EphB1; at 3.2 μM and 580 seconds, immobilized human EphrinB2, 25 nM soluble human EphB1) [%] | EphB2 Inhibition Percent, Inhibition of Association ONLY (EphrinB2-EphB2 [2]; at 3.2 μM and 80 seconds, immobilized human EphrinB2, 25 nM soluble human EphB2) [%] | EphB2 Inhibition Percent, Inhibition of Association-Dissociation (EphrinB2-EphB2 [2]; at 3.2 μM and 580 seconds, immobilized human EphrinB2, 25 nM soluble human EphB2) [%] |
| --- | --- | --- | --- | --- | --- | --- | --- | --- | --- | --- | --- | --- | --- | --- | --- | --- | --- | --- | --- | --- |
| activity similar to A20-I max control | COc1ccccc1N1CCN(Cc2cc(I)c(O)c3ncccc23)CC1 [Compound 71, 7-iodo-5-((4-(2-methoxyphenyl)piperazin-1-yl)methyl)quinolin-8-ol] | exhibit strong IC50 values | fairly strong ability to disrupt some of the unsurmountable tetramer | able to inhibit a small amount of the EphrinB2-EphB2 unsurmountable tetramer | 420 nM and 530 nM | 680 | 620 nM and 650 nM | 380 nM and 410 nM | 470 nM and 340 nM | 480 nM and 510 nM | 52.3 | 39.6 | 73.2 | 58.7 |  |  |  |  |  |  |
|  | Oc1c(Br)cc(CN2CCN(Cc3ccc(Br)cc3)CC2)c2cccnc12 [Compound 44, 7-bromo-5-((4-(4-bromobenzyl)piperazin-1-yl)methyl)quinolin-8-ol] | appears promising |  |  | > 3200 nM | > 3200 | 380 nM |  | 280 nM | 300 nM | 49.9 | 37.3 | 77.1 | 62.1 |  |  |  |  |  |  |
|  | Oc1ccc(CN2CCN(Cc3ccc(C(F)(F)F)cc3)CC2)c2cccnc12 [Compound 48, 5-((4-(4-(trifluoromethyl)benzyl)piperazin-1-yl)methyl)quinolin-8-ol] |  |  |  | > 1600 nM | > 1600 | > 1600 nM | > 1600 nM | > 1600 nM | > 1600 nM | 19.8 | 2.6 | 46.2 | 21.3 |  |  |  |  |  |  |
|  | Oc1ccc(CN2CCN(c3ccc(Br)cc3)CC2)c2cccnc12 [Compound 26, 5-((4-(4-bromophenyl)piperazin-1-yl)methyl)quinolin-8-ol] |  |  |  |  |  |  |  |  |  | 30.6 |  |  |  | 1200 | 35.0 | 11.2 | 36.6 | 35.9 | 60.1 |
